Results on eight molecules are retold here after paper PMC10744333, “New Perspective for Using Antimicrobial and Cell-Penetrating Peptides to Increase Efficacy of Antineoplastic 5-FU in Cancer Cells” (Journal of Functional Biomaterials, 2023).

For test [1], the system named is UM-UC-5 urothelial bladder cancer cell lines. The test can be described thus: tissue or blood. In kind it is cell-based. The conditions noted are these: 48 h. How it is done: (§1) A549 adenocarcinomic human alveolar basal epithelial cells, UM-UC-5 urothelial bladder cancer cell lines, and MRC-5 human normal lung fibroblast cells (all from ATCC, American Type Culture Collection, Manassas, VA, USA) were cultured in Dulbecco’s Modified Eagle Medium (DMEM) medium (Gibco®, Grand Island, NY, USA), supplemented with 10% fetal bovine serum (FBS, Gibco®, Grand Island, NY, USA) and 1% (v/v) penicillin/streptomycin (Sigma-Aldrich®, Steinheim, Germany), maintained at 37 °C and 95% humidified air in a 5% CO2 environment. Cells were cultured in monolayers in T25 cm^2 flasks (ThermoScientific®, Waltham, MA, USA) and cell media were replaced every 2–3 days. At 80% confluency, cells were subcultured. For the subculture process, 0.25% trypsin-ethylenediaminetetraacetic acid (EDTA, Sigma-Aldrich®, Steinheim, Germany), was added.
(§2) The potential of the antineoplastic drug 5-FU, five cationic antimicrobial peptides (CAMPs), and two cell-penetrating peptides (CPPs) was analyzed in UM-UC-5 and A549 cell lines. Cells were treated with drugs in concentrations ranging from 0.1 to 100 μM (for 5-FU) and 0.1 to 50 μM (for CAMPs and CPPs) for 48 h, and cell survival was evaluated using the MTT assay. […] IC50 values > 100 μM were not considered.
(§3) The cell viability was measured using the MTT (Thiazolyl blue tetrazolium bromide; cat. no. M5655; Sigma-Aldrich; Merck KGaA, Darmstadt, Germany) assay in 96-well plates. For the protocol, 5 × 10^3 cells in 200 µL of medium were grown per well for 24 h at 37 °C. Then, cells were treated with CAMPs and CPPs in the following concentrations: 0.1, 1.0, 5.0, 10, 25, and 50 µM. […] The controls were treated with 0.1% H2O and 0.1% DMSO (vehicles). After incubation for 48 h at 37 °C, cell media were aspirated and 100 µL of MTT solution (0.5 mg/mL in PBS) was added to each well. After incubation for 3 h at 37 °C protected from light, MTT solution was removed from each well and 100 µL of DMSO was added to each well to solubilize the formazan crystals. Absorbance was measured on a Tecan Infinite M200 plate reader (Tecan Group Ltd., Männedorf, Switzerland) at 570 nm. The cell viability was calculated relative to the absorbance of carrier controls. Average values were obtained by performing three independent cell viability assays (n = 3).

Test [2] relates to A549 adenocarcinomic human alveolar basal epithelial cells. In kind it is cell-based. The following applies: 48 h. How it is done: as §1, §2, §3
The mark [3] stands for this setting: UM-UC-5 cells, MTT, n = 3, read-out: IC50.
[4] abbreviates: A549 cells, MTT, n = 3, read-out: IC50.

Where two headings read alike, the source gives them in different places. Where a SMILES comes first, the peptide text is derived from it.

Broadly, the IC50 is the concentration that gives 50% inhibition.

Regarding `CC[C@H](C)[C@H](NC(=O)[C@@H](NC(=O)[C@@H](NC(=O)[C@H](CCCNC(=N)N)NC(=O)[C@H](CCCNC(=N)N)NC(=O)[C@H](CCC(N)=O)NC(=O)[C@H](CCCNC(=N)N)NC(=O)/C=C/c1ccccc1)C(C)C)C(C)C)C(=O)N[C@@H](Cc1c[nH]c2ccccc12)C(=O)N[C@@H](Cc1c[nH]c2ccccc12)C(N)=O` [CPP2] (HELM PEPTIDE1{[O=C(/C=C/c1ccccc1)[*:2]].R.Q.R.R.V.V.I.W.W.[am]}$$$$V2.0), the values for the IC50 in test [1] (setting [3]) and in test [2] (setting [4]) were 5.47 µM and over 100 µM, respectively.
In the case of H-WRKFWKYLK-NH2 [CAMP2], the IC50 came to 21.6 µM in test [1] (setting [3]) and 5.77 µM in test [2] (setting [4]).
As to `O=c1[nH]cc(F)c(=O)[nH]1` [Peptide 5-FU, 5-fluorouracil, reference compound], the IC50 in test [1] (setting [3]) was found to be 4.21 µM.
As to H-RQRRVVIWW-NH2 [CAMP7], the IC50 in test [1] (setting [3]) and in test [2] (setting [4]) was over 100 µM throughout.
For the molecule Ac-CLLIILRRRIRKQAHAHSK-NH2 [CPP4], the IC50 in test [1] and in test [2] was over 100 µM in each case.
Regarding H-WKWLKKWIK-NH2 [CAMP1], the half-inhibitory concentration (IC50) in test [1] (setting [3]) was over 100 µM; in test [2] (setting [4]) it was 12.4 µM.
For the molecule H-RIRRWKFRW-NH2 [CAMP5], the IC50 in test [1] (setting [3]) was over 100 µM; in test [2] (setting [4]) it was 19.7 µM.
For H-RLWWWWRRR-NH2 [CAMP3], the IC50 in test [1] is over 100 µM; in test [2], 17.6 µM.
